ChEMBL document CHEMBL1201862, “PubChem BioAssay data set” (2004)
Activity calls are given as the source filed them.

How the values were obtained:
Cytochrome P450 3A4 = Cytochrome P450 3A4 (Homo sapiens, UniProt P08684);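 note: CYP3A4 tested as one member of a cytochrome P450 panel screen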
[1] = biological target: Alkaline phosphatase, placental type (Homo sapiens, UniProt P05187); assay: human placental alkaline phosphatase inhibition – biochemical, luminescence, confirmation (AID 1512); format: functional
Alkaline phosphatase, placental type, sequence (P05187 whole entry): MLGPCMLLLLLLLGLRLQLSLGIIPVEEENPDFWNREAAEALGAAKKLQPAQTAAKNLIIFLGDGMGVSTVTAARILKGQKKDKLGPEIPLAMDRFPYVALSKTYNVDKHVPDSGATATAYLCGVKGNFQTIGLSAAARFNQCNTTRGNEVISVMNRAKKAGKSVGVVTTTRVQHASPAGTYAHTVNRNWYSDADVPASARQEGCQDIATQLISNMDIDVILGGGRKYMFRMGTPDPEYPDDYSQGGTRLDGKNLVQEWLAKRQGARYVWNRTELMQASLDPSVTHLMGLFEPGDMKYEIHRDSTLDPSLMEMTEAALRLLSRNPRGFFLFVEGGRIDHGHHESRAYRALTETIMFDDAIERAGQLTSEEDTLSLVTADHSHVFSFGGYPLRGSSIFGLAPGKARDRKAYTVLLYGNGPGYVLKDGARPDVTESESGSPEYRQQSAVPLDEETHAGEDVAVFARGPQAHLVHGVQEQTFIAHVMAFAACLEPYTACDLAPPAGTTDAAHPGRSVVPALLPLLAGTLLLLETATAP

[2] = biological target: T1, Alkaline phosphatase, tissue-nonspecific isozyme (Homo sapiens, UniProt P05186); assay: potency against alkaline phosphatase TNAP – biochemical, luminescent, dose response, SAR follow-up (AID 1056)
T1 sequence (P05186 whole entry): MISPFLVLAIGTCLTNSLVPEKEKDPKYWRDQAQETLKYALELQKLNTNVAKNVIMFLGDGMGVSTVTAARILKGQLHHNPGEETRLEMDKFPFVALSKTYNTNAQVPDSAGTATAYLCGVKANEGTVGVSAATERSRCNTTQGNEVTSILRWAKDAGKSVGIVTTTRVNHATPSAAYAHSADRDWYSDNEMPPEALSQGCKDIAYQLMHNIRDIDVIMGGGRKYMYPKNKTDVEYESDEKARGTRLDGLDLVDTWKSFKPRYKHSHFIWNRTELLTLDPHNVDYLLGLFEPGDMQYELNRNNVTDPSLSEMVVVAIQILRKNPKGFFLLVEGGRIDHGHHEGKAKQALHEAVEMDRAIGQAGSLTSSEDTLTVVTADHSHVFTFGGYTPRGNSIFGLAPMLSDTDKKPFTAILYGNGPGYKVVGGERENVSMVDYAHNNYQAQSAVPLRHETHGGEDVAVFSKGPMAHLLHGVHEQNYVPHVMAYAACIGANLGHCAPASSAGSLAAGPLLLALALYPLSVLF

[3] = biological target: Glyceraldehyde-3-phosphate dehydrogenase (Homo sapiens, UniProt P04406)
Glyceraldehyde-3-phosphate dehydrogenase, sequence (P04406 whole entry): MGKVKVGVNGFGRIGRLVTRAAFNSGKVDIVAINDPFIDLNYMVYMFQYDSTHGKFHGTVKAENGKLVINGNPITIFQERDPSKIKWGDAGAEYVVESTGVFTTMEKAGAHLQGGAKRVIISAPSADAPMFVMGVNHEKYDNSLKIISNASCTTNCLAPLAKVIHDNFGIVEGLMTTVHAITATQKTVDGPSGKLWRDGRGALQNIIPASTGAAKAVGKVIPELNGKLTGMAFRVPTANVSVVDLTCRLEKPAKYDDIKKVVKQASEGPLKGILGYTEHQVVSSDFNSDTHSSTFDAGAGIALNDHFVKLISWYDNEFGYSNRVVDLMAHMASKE

Nonstructural protein 1 = Nonstructural protein 1 (Influenza A virus, UniProt Q194T2); format: functional, Influenza A virus (A/California/07/2009(H1N1))
[4] = NIH-3T3 fibroblast cytotoxicity, dose response, cytotoxicity control, cell-based, fluorescence, Alamar Blue, secondary assay (AID 2327); format: functional;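 note: NIH-3T3 mouse fibroblasts cultured with fluconazole at 8 µg/mL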
Beta-galactosidase [5] = biological target: T2, Beta-galactosidase (Escherichia coli, UniProt Q8VNN2); assay: detection-enzyme interference by beta-gal modulators – biochemical, E. coli enzyme, set 3, artefact control for CCR6 antagonist project, dose response (AID 504712); format: functional
T2 sequence (Q8VNN2 whole entry): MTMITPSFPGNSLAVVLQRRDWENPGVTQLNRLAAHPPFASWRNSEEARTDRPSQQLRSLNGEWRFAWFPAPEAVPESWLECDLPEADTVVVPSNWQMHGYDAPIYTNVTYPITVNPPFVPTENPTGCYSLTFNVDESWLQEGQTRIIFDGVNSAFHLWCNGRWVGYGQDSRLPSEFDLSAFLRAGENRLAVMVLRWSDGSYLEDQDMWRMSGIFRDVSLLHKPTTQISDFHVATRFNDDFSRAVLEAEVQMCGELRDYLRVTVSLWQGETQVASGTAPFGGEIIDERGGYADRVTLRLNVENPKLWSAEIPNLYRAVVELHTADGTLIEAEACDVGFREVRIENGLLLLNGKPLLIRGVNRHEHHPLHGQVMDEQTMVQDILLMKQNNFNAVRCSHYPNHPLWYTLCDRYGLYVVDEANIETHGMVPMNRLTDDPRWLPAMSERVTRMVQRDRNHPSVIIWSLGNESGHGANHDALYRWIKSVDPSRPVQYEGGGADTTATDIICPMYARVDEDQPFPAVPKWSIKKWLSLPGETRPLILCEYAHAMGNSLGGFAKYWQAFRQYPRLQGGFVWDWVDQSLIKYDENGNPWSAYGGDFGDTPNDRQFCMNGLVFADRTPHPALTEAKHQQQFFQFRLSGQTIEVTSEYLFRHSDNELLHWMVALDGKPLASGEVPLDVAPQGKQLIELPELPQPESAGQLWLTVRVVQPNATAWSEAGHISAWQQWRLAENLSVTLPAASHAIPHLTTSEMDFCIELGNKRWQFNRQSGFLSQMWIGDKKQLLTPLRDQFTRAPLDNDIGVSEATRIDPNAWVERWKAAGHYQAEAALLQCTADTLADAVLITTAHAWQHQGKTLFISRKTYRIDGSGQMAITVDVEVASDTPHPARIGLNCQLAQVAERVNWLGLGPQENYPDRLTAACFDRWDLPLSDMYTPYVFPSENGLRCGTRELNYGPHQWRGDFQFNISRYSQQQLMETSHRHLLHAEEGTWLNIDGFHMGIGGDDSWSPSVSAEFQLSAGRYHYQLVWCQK

Cytochrome P450 2C9 = Cytochrome P450 2C9 (Homo sapiens, UniProt P11712)
Mu-type opioid receptor = Mu-type opioid receptor (Homo sapiens, UniProt P35372); assay: HTS Image-Based Screen for Agonists of the MOR Receptor. [Related pubchem assays (depositor defined):AID1777, AID1785, AID1786, AID2133]; format: functional;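 note: imaging of beta-arrestin GFP recruitment into spots after receptor activation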
[6] = biological target: T3, Kappa-type opioid receptor (Homo sapiens, UniProt P41145); format: functional
T3 sequence (P41145 whole entry): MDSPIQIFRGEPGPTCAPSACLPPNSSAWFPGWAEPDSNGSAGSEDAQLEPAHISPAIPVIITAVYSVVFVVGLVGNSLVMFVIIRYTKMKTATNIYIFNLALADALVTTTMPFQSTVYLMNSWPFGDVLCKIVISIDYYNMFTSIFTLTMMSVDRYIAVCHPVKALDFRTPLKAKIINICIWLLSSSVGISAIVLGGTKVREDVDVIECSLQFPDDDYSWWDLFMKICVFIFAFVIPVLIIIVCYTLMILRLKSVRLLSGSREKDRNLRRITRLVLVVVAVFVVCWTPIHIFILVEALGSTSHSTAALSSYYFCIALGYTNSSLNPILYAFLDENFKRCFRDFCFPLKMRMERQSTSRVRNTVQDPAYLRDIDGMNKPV

[7] = biological target: T3, Kappa-type opioid receptor; format: functional; remark: listed apart in the source
Beta-galactosidase [8] = biological target: T2, Beta-galactosidase; format: functional
[9] = biological target: T4, Delta-type opioid receptor (Homo sapiens, UniProt P41143); assay: HTS Image-Based Screen for Agonists of the DOR Receptor. [Related pubchem assays (depositor defined):AID1777, AID1786, AID2133]; format: functional
T4 sequence (P41143 whole entry): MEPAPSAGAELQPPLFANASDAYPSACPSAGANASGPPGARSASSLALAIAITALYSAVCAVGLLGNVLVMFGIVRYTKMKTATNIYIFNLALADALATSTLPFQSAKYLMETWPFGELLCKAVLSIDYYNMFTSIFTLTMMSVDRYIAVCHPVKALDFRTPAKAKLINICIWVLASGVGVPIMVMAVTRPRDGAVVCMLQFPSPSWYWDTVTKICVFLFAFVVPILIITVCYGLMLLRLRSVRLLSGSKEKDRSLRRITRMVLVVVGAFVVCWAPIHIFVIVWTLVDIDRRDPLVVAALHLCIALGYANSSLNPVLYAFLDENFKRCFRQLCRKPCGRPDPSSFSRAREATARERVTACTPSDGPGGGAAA

[10] = biological target: T4, Delta-type opioid receptor; assay: HTS Image-Based Screen for Antagonists of the DOR Receptor. [Related pubchem assays (depositor defined):AID1777, AID1785, AID1786, AID2133]; format: functional
[11] = biological target: Intestinal-type alkaline phosphatase (Homo sapiens, UniProt P09923); assay: inhibition of human intestinal alkaline phosphatase – biochemical, dose response (AID 488876); format: functional
Large T antigen = Large T antigen (Simian virus 40, UniProt P03070); format: functional, Betapolyomavirus macacae;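 note: Confirmatory-stage PubChem screen for compounds that inhibit SV40 T antigen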
Large T antigen, sequence (P03070 whole entry): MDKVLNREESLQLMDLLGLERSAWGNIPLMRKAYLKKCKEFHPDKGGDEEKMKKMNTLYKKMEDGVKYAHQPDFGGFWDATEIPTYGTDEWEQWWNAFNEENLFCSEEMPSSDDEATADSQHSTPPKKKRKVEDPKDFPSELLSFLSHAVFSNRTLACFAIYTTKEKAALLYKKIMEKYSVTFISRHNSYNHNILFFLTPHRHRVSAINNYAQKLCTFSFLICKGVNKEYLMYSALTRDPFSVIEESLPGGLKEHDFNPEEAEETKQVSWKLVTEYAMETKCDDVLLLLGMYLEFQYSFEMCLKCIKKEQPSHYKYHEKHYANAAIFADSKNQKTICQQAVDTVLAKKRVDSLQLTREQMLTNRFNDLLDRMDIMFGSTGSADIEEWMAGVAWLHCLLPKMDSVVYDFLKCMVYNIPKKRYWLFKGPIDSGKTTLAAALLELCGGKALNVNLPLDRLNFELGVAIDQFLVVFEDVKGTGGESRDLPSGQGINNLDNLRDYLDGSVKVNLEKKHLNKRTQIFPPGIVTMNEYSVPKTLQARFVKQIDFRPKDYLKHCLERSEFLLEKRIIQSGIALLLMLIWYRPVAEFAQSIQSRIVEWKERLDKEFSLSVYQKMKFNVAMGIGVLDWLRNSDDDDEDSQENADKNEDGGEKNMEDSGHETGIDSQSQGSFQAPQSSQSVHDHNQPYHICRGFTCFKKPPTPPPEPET

[12] = biological target: T5, Histone-lysine N-methyltransferase NSD2 (Homo sapiens, UniProt O96028); format: biochemical
T5 sequence (O96028 whole entry): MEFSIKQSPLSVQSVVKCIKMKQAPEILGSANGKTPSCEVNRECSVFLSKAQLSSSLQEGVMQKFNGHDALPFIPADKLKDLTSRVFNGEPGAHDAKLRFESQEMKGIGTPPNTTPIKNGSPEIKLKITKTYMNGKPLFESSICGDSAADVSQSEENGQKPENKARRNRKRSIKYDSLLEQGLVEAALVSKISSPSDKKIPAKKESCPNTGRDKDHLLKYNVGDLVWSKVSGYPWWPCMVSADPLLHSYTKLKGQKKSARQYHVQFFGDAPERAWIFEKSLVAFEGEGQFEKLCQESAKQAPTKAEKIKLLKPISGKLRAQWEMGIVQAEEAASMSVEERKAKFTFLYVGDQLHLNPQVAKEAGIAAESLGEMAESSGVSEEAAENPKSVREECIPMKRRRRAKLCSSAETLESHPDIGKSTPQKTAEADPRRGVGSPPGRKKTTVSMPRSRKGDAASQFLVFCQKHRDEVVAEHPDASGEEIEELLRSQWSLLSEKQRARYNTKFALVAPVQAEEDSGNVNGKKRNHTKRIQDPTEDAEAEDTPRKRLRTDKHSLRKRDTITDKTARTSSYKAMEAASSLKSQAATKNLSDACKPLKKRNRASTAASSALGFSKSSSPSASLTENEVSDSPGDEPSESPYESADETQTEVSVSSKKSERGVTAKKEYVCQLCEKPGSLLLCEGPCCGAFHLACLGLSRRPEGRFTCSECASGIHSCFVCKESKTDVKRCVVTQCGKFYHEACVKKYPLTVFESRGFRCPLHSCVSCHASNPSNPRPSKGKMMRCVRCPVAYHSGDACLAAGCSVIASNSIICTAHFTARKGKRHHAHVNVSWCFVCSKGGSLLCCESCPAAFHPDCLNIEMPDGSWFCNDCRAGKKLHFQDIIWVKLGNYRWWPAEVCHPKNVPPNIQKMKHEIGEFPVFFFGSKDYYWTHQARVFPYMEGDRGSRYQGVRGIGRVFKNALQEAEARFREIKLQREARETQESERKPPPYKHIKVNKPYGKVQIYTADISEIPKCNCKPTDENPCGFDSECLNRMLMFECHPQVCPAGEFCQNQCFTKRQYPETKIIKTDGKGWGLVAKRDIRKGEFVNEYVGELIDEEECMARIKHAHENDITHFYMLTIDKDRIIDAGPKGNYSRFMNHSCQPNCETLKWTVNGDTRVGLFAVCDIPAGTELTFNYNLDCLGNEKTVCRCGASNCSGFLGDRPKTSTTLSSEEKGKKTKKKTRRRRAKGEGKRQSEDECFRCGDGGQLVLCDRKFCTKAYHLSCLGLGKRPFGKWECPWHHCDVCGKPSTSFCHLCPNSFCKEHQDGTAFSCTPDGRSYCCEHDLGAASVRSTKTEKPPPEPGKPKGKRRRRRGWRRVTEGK

[13] = biological target: Intestinal-type alkaline phosphatase (Mus musculus, UniProt P24822); assay: PubChem AID 488785; format: functional
[14] = biological target: T1, Alkaline phosphatase, tissue-nonspecific isozyme; assay: TNAP enzyme inhibition by screening hits, dose response, selectivity assay for mouse IAP inhibitor project, biochemical, human TNAP, uHTS hits (AID 488906); format: functional
Albumin = Albumin (Bos taurus, UniProt P02769); assay: Counterscreen for inhibitors of T-cell receptor (TCR)-CD3 interaction: Fluorescence-based biochemical high throughput dose response assay to identify inhibitors of T-cell receptor (TCR)-CD3 interaction using a TAMRA-labeled BSA probe.; format: functional
[15] = biological target: Luciferin 4-monooxygenase (Photinus pyralis, UniProt P08659); assay: inhibition of purified Photinus pyralis luciferase – biochemical, luminescence, dose response (AID 1891)
[16] = luciferase reporter signal suppression in cells – H4 neuroglioma cells, luminescence, dose response (AID 1990); format: functional, cell-based
HEK293 [17] = assay: inhibition of NOD1-driven NF-kB reporter – cell-based, luminescence, uHTS, primary screen (AID 1578); format: functional; details: Homo sapiens
[18] = Luminescence Cell-Based Dose Confirmation HTS to Identify Inhibitors of Platelet Dense Granule Release. [Related pubchem assays: 1663 (Primary HTS), 1678 (Summary of Project)]; format: functional
HEK293 [19] = assay: cells; format: functional, cell-based; details: Homo sapiens
[20] = Luminescence Cell-Based Dose Response HTS to Identify Inhibitors of 5'UTR Stem-Loop Driven Prion Protein mRNA Translation in H4 Neuroglioblastoma Cells. [Related pubchem assays: 1827 (Project Summary), 1813 (Primary HTS)]; format: functional
HEK293 [21] = assay: cells; format: functional, cell-based; details: Homo sapiens; remark: listed apart in the source
[22] = alpha-synuclein stem-loop luciferase translation blockers – H4 neuroglioma cells, luminescence, confirmation (AID 1988); format: functional, cell-based
[23] = biological target: Nucleotide-binding oligomerization domain-containing protein 2 (Homo sapiens, UniProt Q9HC29); assay: inhibition of NOD2-driven NF-kB reporter – cell-based, luminescence, uHTS, HEK293 (AID 1566); format: functional
Nucleotide-binding oligomerization domain-containing protein 2, sequence (Q9HC29 whole entry, the tested form may be a part): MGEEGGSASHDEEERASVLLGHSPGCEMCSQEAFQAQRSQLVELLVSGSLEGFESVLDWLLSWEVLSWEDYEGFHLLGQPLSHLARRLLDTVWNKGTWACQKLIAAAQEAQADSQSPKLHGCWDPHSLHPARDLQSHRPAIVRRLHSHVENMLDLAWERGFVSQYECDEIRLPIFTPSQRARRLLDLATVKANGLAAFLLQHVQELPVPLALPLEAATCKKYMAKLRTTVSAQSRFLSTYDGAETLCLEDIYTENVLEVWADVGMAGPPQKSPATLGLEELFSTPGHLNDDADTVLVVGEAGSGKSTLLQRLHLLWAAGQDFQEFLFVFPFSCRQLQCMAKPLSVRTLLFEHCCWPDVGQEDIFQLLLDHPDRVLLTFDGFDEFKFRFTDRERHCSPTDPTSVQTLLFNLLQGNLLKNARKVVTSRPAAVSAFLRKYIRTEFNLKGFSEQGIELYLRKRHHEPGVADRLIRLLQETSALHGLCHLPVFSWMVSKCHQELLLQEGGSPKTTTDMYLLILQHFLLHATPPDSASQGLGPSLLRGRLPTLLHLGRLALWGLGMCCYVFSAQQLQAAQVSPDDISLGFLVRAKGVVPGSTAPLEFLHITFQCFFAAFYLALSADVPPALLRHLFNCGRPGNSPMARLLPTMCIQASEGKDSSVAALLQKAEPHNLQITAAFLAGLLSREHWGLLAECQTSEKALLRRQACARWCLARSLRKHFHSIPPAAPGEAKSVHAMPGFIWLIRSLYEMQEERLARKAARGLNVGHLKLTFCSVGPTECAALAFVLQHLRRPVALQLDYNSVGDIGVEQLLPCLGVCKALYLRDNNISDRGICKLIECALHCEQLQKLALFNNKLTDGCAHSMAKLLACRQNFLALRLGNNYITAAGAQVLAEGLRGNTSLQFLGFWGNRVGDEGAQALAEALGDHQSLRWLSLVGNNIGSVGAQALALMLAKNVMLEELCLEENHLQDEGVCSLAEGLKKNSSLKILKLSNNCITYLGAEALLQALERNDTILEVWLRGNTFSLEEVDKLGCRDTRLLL

HEK293 [24] = assay: NOD2 signaling inhibitors in MDP-stimulated cells, cell-based, uHTS, luminescence (AID 2001); format: functional; details: Homo sapiens
HEK293 [25] = assay: cells; format: functional, cell-based; details: Homo sapiens; remark: listed apart in the source
[26] = biological target: Dual specificity tyrosine-phosphorylation-regulated kinase 1A (Rattus norvegicus, UniProt Q63470); format: biochemical, Homo sapiens
[27] = biological target: Glucose-6-phosphate 1-dehydrogenase (Homo sapiens, UniProt P11413); assay: inhibition of Homo sapiens G6PD, dose series – biochemical, fluorescence, selectivity assay for P. falciparum G6PD inhibitor project, dose response (AID 504792); format: functional
[28] = biological target: T6, RNA-binding protein pos-1 (Caenorhabditis elegans, UniProt G5EF15); assay: disruptors of C. elegans POS-1 RNA interaction – biochemical, fluorescence polarization, dose response (AID 1964);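 note: purified POS-1 fused to maltose binding protein made in E. coli; potency of compounds blocking POS-1 binding to fluorescent RNA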
T6 sequence (G5EF15 whole entry): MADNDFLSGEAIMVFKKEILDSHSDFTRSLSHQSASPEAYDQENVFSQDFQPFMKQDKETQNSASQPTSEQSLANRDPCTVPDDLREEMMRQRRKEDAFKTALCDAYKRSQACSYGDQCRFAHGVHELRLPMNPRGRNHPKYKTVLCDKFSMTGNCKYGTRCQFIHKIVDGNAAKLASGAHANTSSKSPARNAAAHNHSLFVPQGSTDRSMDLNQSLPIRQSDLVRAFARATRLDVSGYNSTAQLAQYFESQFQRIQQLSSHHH

[29] = biological target: T7, Zinc finger protein mex-5 (Caenorhabditis elegans, UniProt Q9XUB2); assay: potency of MEX-5 RNA-binding blockers – biochemical, C. elegans, fluorescence polarization, dose response (AID 1960)
T7 sequence (Q9XUB2 whole entry): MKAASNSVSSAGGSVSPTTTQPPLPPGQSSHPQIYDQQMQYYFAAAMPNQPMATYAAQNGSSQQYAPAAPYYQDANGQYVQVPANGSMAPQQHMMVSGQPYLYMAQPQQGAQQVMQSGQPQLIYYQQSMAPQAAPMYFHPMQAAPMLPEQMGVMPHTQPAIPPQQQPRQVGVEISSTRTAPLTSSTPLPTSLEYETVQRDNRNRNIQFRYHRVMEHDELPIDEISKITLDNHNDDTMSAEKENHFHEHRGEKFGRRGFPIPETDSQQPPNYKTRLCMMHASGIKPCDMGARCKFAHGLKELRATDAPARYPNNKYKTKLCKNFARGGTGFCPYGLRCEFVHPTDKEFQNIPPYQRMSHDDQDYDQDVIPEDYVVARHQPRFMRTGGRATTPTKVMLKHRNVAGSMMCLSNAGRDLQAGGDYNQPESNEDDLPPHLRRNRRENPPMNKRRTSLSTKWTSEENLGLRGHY

Cytochrome P450 3A4, sequence (P08684 whole entry): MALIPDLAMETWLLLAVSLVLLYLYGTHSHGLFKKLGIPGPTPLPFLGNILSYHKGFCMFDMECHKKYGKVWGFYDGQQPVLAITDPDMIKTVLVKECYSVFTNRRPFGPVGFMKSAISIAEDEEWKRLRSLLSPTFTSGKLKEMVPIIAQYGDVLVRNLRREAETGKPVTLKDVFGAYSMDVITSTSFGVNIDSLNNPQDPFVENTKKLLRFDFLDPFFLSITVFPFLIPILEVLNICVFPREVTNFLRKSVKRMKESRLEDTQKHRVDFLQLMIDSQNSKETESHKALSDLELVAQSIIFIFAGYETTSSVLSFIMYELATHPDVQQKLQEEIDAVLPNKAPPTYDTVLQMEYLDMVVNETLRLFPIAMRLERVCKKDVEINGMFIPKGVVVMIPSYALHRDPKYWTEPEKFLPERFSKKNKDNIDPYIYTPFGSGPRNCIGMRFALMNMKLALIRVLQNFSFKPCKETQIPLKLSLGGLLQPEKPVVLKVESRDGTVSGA

CC(C)(C)C1CCC(OCC(O)CN2CCN(c3ccccc3)CC2)CC1.Cl (stereo not drawn)
AC50 (Cytochrome P450 3A4): inconclusive

O=C(c1cc(-c2cc(F)c(Cl)cc2Cl)[nH]n1)N1CCCCC1
IC50 [1]: > 100 µM (inactive) | IC50 [2]: 0.322 µM (active) | IC50 [3]: > 100 µM (not active)

Cc1c(N=NC2=C(O)CC(C)(C)CC2=O)c(=O)n(-c2ccccc2)n1C
IC50 (Nonstructural protein 1): 3.63 µM (active) | EC50 [4]: > 160 µM (inactive) | IC50 (Beta-galactosidase [5]): > 66.6 µM (inactive)

COC(=O)c1ccccc1NC(=O)CSc1nnc(-c2ccccc2Cl)[nH]1
IC50 [1]: > 100 µM (inactive) | IC50 [2]: 4.88 µM (active) | IC50 [3]: > 100 µM (not active)

CCOC(=O)c1c(C)nc2sc3c(=O)n(-c4ccc(C)cc4)cnc3c2c1-c1ccc(OC)cc1
AC50 (Cytochrome P450 2C9): 0.355 µM (inconclusive) | AC50 (Cytochrome P450 3A4): inconclusive

CC(=O)N1N=C(c2cccs2)CC1c1cccc([N+](=O)[O-])c1 (stereo not drawn)
EC50 (Mu-type opioid receptor): > 32 µM (inactive) | IC50 [6]: 14.4 µM (active) | IC50 [7]: > 32 µM | EC50 (Beta-galactosidase [8]): 20.4 µM (active) | EC50 [9]: > 32 µM (inactive) | IC50 [10]: > 32 µM (inactive)

CN(C)c1ccnc(-c2ccccc2C(F)(F)F)n1
AC50 (Cytochrome P450 3A4): inconclusive

O=C(Cc1nnc(NC(=O)c2ccccc2)s1)N/N=C\c1ccc(O)c(O)c1
IC50 [11]: > 100 µM (inactive) | IC50 (Large T antigen): 20.8 µM (active) | AC50 [12]: 5.23 µM (active) | IC50 [13]: 24.6 µM (active) | IC50 [14]: > 100 µM (inactive) | IC50 (Albumin): > 94.1 µM (inactive)

Cc1cc(/C=N/Nc2ncnc(N)c2[N+](=O)[O-])c(C)n1-c1ccccc1
EC50 [15]: 1.1 µM (active) | EC50 [16]: 0.171 µM (active) | EC50 (HEK293 [17]): 4.14 µM (active) | EC50 [18]: 3.67 µM (active) | IC50 (HEK293 [19]): > 20 µM (inactive) | EC50 [20]: < 0.1 µM (active) | IC50 (HEK293 [21]): > 20 µM (inactive) | EC50 [22]: 0.192 µM (active) | EC50 [23]: < 0.31 µM (inactive) | IC50 (HEK293 [24]): 6.1 µM (active) | IC50 (HEK293 [25]): 1.4 µM (active)

COc1ccc(C(=O)CSc2nc(C)cc(C)n2)cc1
IC50 [1]: > 100 µM (inactive) | IC50 [2]: > 100 µM (inactive)

COc1cc(-c2cc(=O)c3c(O)c(OC)c(OC)c(O)c3o2)ccc1O [ISOTHYMONIN]
IC50 (Large T antigen): 6.77 µM (active) | AC50 [26]: 0.892 µM (active) | IC50 [27]: > 80 µM (inactive) | EC50 [28]: 48 µM (active) | EC50 [29]: 7.08 µM (inconclusive)
